Laboratory results from patent publication US4933348A, “Heterocyclic compounds” (priority 1985, dated 1990).

Key:
[1] = system: SRS-A-induced contraction of guinea-pig ileum; test: Inhibition of SRS-A-induced contraction of isolated guinea-pig ileum; set-up: species or system guinea-pig (male Hartley); conditions: submaximal concentration of SRS-A (derived from guinea pig lung), incubation 20 minutes, 37° C., read-out: IC 50 (M), Ileum, Anti-SRS-A
Protocol: (§1) (1) Inhibition of SRS-A- and LTD4 -induced contraction of guinea-pig ileum and trachea
(§2) Methods: Male Hartley guinea-pigs, weighing 500 to 700 g were sacrificed by a blow on the head The ileum and tracheal strips prepared according to the method of Constantine (Constantine, J. W., J. Pharm Pharmacol., 17, 384 (1965)) were suspended with 1.0 g tension in an organ bath containing 10 ml of Tyrode solution equilibrated with a mixture of 95% O2 and 5% CO2 at 37° C. The tissues were equilibrated for 60 minutes; during this period the Tyrode solution was replaced every 15 minutes and the loading tension was adjusted to 1.0 g. The developed tension of the tissues was measured isometrically with a strain gauge transducer, and recorded on a Recticorder. Both the contractile response of the ileum to submaximal concentration of SRS-A (derived from guinea pig lung) and tracheal response to 10^-8 M LTD4 were recorded in the absence and then in the presence of various concentrations of test compounds. The incubation time of the compounds was 20 minutes.

[2] = system: LTD4-induced contraction of guinea-pig trachea; test: Inhibition of LTD4-induced contraction of isolated guinea-pig trachea; set-up: species or system guinea-pig (male Hartley); conditions: 10^-8 M LTD4; for inhibition of the contractions induced by LTD4 (in words): isolated guinea pig trachea; for IC50: isolated guinea-pig trachea, incubation 20 minutes, 37° C., read-out: IC 50 (M), Trachea, Anti-LTD4
Protocol: as §1, §2

[3] = system: LTD4-enhanced vascular permeability; test: Inhibition of LTD4-enhanced vascular permeability in guinea-pig; format: in vivo, guinea-pig (male Hartley); conditions: for ED50: Cavia porcellus, po, 30 minutes before LTD4 injection (5 ng intradermal); for anti-leukotriene effect by oral route (in words) / inhibition of LTD4-enhanced vascular permeability (in words): p.o.; for inhibition of LTD4-enhanced vascular permeability (in words): 30 minutes before LTD4 injection
Protocol: (2) Inhibition of LTD4 -enhanced vascular permeability in guinea-pig
Method: Male Hartley quinea-pigs weighing 270 to 305 g, starved for 16 hours, were intradermally injected 5 ng LTD4 in a volume of 0.1 ml into two sites on the shaved back. In addition, 0.1 ml of vehicle was injected intradermally in each animal to see non-specific irritation. One ml of saline containing 1% Evans blue was intravenously injected 2 minutes before LTD4 injection. Animals were sacrificed 30 minutes after LTD4 injection. The leaked dye at the site of LTD4 or vehicle injection was extracted according to the method of Harada et al. (Harada, M. et al., J. Pharm. Pharmacol., 23, 218 (1971)) and measured photometrically at 620 nm. The LTD4 -induced skin reaction was expressed as a difference in the amount of dye between LTD4 and vehicle. Test compounds were orally administered 30 minutes before LTD4 injection.

Row | SMILES | IC50 [1] | inhibition of the contractions induced by LTD4 (in words) [2] | IC50 [2] | ED50 [3] | anti-leukotriene effect by oral route (in words) [3] | inhibition of LTD4-enhanced vascular permeability (in words) [3]
1 | CCCc1c(CSc2nnc(SCC(=O)O)s2)ccc(C(C)=O)c1O [Example 2, [[5-[(4-acetyl-3-hydroxy-2-propylbenzyl)thio]-1,3,4-thiadiazol-2-yl]thio]-acetic acid] | 4.2e-08 M | potently inhibited | 4e-08 M | 11.3 mg/kg | potent anti-leukotriene effect | dose-dependently inhibited
2 | CCCc1c(CSc2nnc(SCCCC(=O)O)s2)ccc(C(C)=O)c1O [Example 4, 4-[[5-[(4-acetyl-3-hydroxy-2-propylbenzyl)thio]-1,3,4-thiadiazol-2-yl]thio]butyric acid] | 4.1e-09 M |  |  |  |  | 
3 | CCCc1c(CSc2nnc(SCCCCCC(=O)OCC)s2)ccc(C(C)=O)c1O [Example 10, ethyl 6-[[5-[(4-acetyl-3-hydroxy-2-propylbenzyl)thio]-1,3,4-thiadiazol-2-yl]thio]hexanate] | 5.1e-08 M |  |  |  |  | 
4 | CCCc1c(CSc2nnc(SCCCCC(=O)O)s2)ccc(C(C)=O)c1O [Example 11, 5-[[5-[(4-acetyl-3-hydroxy-2-propylbenzyl)thio]-1,3,4-thiadiazol-2-yl]thio]valeric acid] | 9.1e-09 M |  |  |  |  | 
5 | CCCc1c(CSc2nnc(SCCCCCC(=O)O)s2)ccc(C(C)=O)c1O [Example 12, 6-[[5-[(4-acetyl-3-hydroxy-2-propylbenzyl)thio]-1,3,4-thiadiazol-2-yl]thio]hexanoic acid] | 4e-09 M |  |  |  |  | 
6 | CCCc1c(CSc2nnc(SCCCCCCC(=O)O)s2)ccc(C(C)=O)c1O [Example 13, 7-[[5-[(4-acetyl-3-hydroxy-2-propylbenzyl)thio]-1,3,4-thiadiazol-2-yl]thio]heptanoic acid] | 2.1e-08 M |  |  |  |  | 
7 | CCCc1c(CSc2nccc(O)n2)ccc(C(C)=O)c1O [Example 14, 2-[(4-acetyl-3-hydroxy-2-propylbenzyl)thio]-4-hydroxypyrimidine] | 5e-08 M |  |  |  |  | 
8 | CCCc1c(CSc2nnc(NC(=O)C(=O)O)s2)ccc(C(C)=O)c1O [Example 22, [5-[(4-acetyl-3-hydroxy-2-propylbenzyl)thio]-1,3,4-thiadiazol-2-yl]oxamidic acid] | 2.2e-08 M |  |  |  |  | 
9 | CCCc1c(CSc2nnc(NC(=O)CCC(=O)O)s2)ccc(C(C)=O)c1O [Example 24, 4-[[5-[(4-acetyl-3-hydroxy-2-propylbenzyl)thio]-1,3,4-thiadiazol-2-yl]amino]-4-oxobutyric acid] | 3.3e-09 M |  |  |  |  | 
10 | CCCc1c(CSc2nnc(SCCCSCC(=O)O)s2)ccc(C(C)=O)c1O [Example 32, [[3-[[5-[(4-acetyl-3-hydroxy-2-propylbenzyl)thio]-1,3,4-thiadiazol-2-yl]thio]propyl]thio]acetic acid] | 1.5e-10 M | potently inhibited | 3e-09 M |  |  | 
11 | CCCc1c(CSc2nnc(SCc3ccc(OCC(=O)O)cc3)s2)ccc(C(C)=O)c1O [Example 33, [p-[[[5-[(4-acetyl-3-hydroxy-2-propylbenzyl)thio]-1,3,4-thiadiazol-2-yl]thio]methyl]phenoxy]acetic acid] | 2.9e-10 M | potently inhibited | 5.4e-08 M |  |  | 
12 | CCCc1c(CSc2nnc(SCc3ccc(OC(C)C(=O)O)cc3)s2)ccc(C(C)=O)c1O (stereo not shown) [Example 34, 2-[p-[[[5-[(4-acetyl-3-hydroxy-2-propylbenzyl)thio]-1,3,4-thiadiazol-2-yl]thio]methyl]phenoxy]propionic acid] |  |  |  | 4.2 mg/kg |  | 
13 | CCCc1c(CSc2nnc(SCCC[S+]([O-])CC(=O)O)s2)ccc(C(C)=O)c1O (stereo not shown) [Example 35, [3-[[5-[(4-acetyl-3-hydroxy-2-propylbenzyl)thio]-1,3,4-thiadiazol-2-yl]thio]propylsulfinyl]acetic acid] | 1.1e-08 M | potently inhibited | 7.8e-09 M |  |  | 
14 | CCCc1c(CSc2nnc(SCCCS(=O)(=O)CC(=O)O)s2)ccc(C(C)=O)c1O [Example 36, [3-[[5-[(4-acetyl-3-hydroxy-2-propylbenzyl)thio]-1,3,4-thiadiazol-2-yl]thio]propylsulfonyl]acetic acid] | 1.1e-09 M | potently inhibited | 2.9e-09 M |  |  | 
15 | CCCc1c(CSc2nnc(SCc3ccc(C(=O)O)cc3)s2)ccc(C(C)=O)c1O [Example 37, p-[[5-[(4-acetyl-3-hydroxy-2-propylbenzyl)thio]-1,3,4-thiadiazol-2-yl]thiomethyl]benzoic acid] | 3.6e-09 M | potently inhibited | 1.1e-08 M | 7 mg/kg | potent anti-leukotriene effect | dose-dependently inhibited
16 | CCCc1c(CSc2nnc(SCc3ccc(CSCC(=O)O)cc3)s2)ccc(C(C)=O)c1O [Example 43, [[p-[[[5-[(4-acetyl-3-hydroxy-2-propylbenzyl)thio]-1,3,4-thiadiazol-2-yl]thio]methyl]benzyl]thio]acetic acid] | 4.7e-09 M | potently inhibited | 3.8e-09 M |  |  | 
17 | CCCc1c(CSc2snc(O)c2C(=O)O)ccc(C(C)=O)c1O [Example 44, 5-[(4-acetyl-3-hydroxy-2-propylbenzyl)thio]-3-hydroxy-4-isothiazolecarboxylic acid] | 4.5e-08 M | potently inhibited | 1.9e-07 M |  |  | 
18 | CCCc1c(CSc2nnc(SCc3ccc(CCC(=O)O)cc3)s2)ccc(C(C)=O)c1O [Example 46, 3-[p-[[[5-[(4-acetyl-3-hydroxy-2-propylbenzyl)thio]-1,3,4-thiadiazol-2-yl]thio]methyl]phenyl]propionic acid] | 3.1e-08 M |  |  |  |  | 
